In patent EP3800188A1, “SUBSTITUTED PYRAZOLOPYRIMIDINES AS IRAK4 INHIBITORS” (Bayer AG, priority 2019, dated 2021):

What was measured:
human IRAK4 = target: T1, human IRAK4 (Homo sapiens, UniProt Q9NWZ3); test: Human IRAK4 kinase activity inhibition assay (IRAK4 TR-FRET assay); format: biochemical; conditions: 1 mM ATP, GST-human IRAK4, average or median values
T1 construct: GST (N); made in house; host or cells: baculovirus-infected Hi5 (BTI-TN-5B1-4) insect cells
T1 sequence (Q9NWZ3 1-460): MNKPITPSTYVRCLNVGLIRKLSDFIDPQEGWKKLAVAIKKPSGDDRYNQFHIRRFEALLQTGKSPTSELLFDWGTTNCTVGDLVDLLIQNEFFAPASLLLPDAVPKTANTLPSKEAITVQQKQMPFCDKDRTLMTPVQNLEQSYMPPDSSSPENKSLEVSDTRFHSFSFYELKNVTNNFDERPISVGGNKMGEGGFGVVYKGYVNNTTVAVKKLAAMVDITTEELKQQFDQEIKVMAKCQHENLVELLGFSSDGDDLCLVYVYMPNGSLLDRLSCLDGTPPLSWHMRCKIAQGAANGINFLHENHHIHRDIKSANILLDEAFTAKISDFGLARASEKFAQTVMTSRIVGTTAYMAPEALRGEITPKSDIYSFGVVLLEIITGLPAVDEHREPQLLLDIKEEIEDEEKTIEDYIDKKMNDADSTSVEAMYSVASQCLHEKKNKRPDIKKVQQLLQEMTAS
Summary of the method: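 GST-IRAK4 from insect cells (about 0.2 nM, linear range) was preincubated 15 min with compound (11 concentrations, 20 µM–0.073 nM) in HEPES pH 7.5 with MgCl2 and DTT before kinase reaction on a biotinylated peptide. Phosphopeptide was detected by TR-FRET (Eu anti-mouse-IgG/anti-phosphoserine/streptavidin-XL665, 1 h at 22°C) as the 665/620 nm ratio, normalized to no-compound and no-enzyme controls.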

[1] = Metabolic stability in human liver microsomes; conditions: 1 µM compound; for CLblood, human microsomes: hepatic in vivo blood clearance calculated with well stirred liver model, '(stable)' given beside < 0.01; for Fmax, human microsomes: maximal oral bioavailability calculated with well stirred liver model, 0.5 mg/mL protein, '(stable)' given beside 100
Protocol: The in vitro metabolic stability of test compounds was determined by incubating them at 1 µM in a suspension liver microsomes in 100 mM phosphate buffer, pH7.4 (NaH2PO4 x H2O + Na2HPO4 x 2H2O) and at a protein concentration of 0.5 mg/mL at 37° C. The microsomes were activated by adding a co-factor mix containing 8 mM Glukose-6-Phosphat, 4 mM MgCl2, 0.5 mM NADP and 1 IU/mL G-6-P-Dehydrogenase in phosphate buffer, pH 7.4. The metabolic assay was started shortly afterwards by adding the test compound to the incubation at a final volume of 1 mL. Organic solvent in the incubations was limited to ≤0.01 % dimethylsulfoxide (DMSO) and ≤1% acetonitril. During incubation, the microsomal suspensions were continuously shaken at 580 rpm, and aliquots were taken at 2, 8, 16, 30, 45 and 60 min, to which equal volumes of cold methanol were immediately added. Samples were frozen at -20° C over night, subsequently centrifuged for 15 min at 3000 rpm and the supernatant was analyzed with an Agilent 1200 HPLC-system with LCMS/MS detection.
The half-life of a test compound was determined from the concentration-time plot. From the half-life the intrinsic clearances were calculated. Together with the additional parameters liver blood flow, specific liver weight and microsomal protein content the hepatic in vivo blood clearance (CL) and the maximal oral bioavailability (Fmax) were calculated using the "well stirred" liver model. The following parameter values were used: Liver blood flow - 1.32 L/h/kg (human), 2.1 L/h/kg (dog); specific liver weight - 21 g/kg (human), 39 g/kg (dog); microsomal protein content - 40 mg/g.

| SMILES | IC50 (human IRAK4) [nM] | CLblood, human microsomes [1] | Fmax, human microsomes [1] |
| --- | --- | --- | --- |
| CC1(N2CCOCC2)CN(c2nc(N[C@H]3C[C@@H](O)C3)nc3c2cnn3-c2cccc(C(F)(F)F)c2)C1 [Example I-76, cis-3-({4-[3-methyl-3-(morpholin-4-yl)azetidin-1-yl]-1-[3-(trifluoromethyl)phenyl]-1H-pyrazolo[3,4-d]pyrimidin-6-yl}amino)cyclobutanol] | 9.61 | 0.30 L/h/kg | 77% |
| C[C@]1(O)C[C@H](Nc2nc(N3CC(N4CCOCC4)C3)c3cnn(-c4cccc(C(F)(F)F)c4)c3n2)C1 [Example I-77, trans-1-methyl-3-({4-[3-(morpholin-4-yl)azetidin-1-yl]-1-[3-(trifluoromethyl)phenyl]-1H-pyrazolo[3,4-d]pyrimidin-6-yl}amino)cyclobutanol] | 4.8 | 0.36 L/h/kg | 72% |
| C[C@]1(O)C[C@@H](Nc2nc(N3CC(N4CCOCC4)C3)c3cnn(-c4cccc(C(F)(F)F)c4)c3n2)C1 [Example I-78, cis-1-methyl-3-({4-[3-(morpholin-4-yl)azetidin-1-yl]-1-[3-(trifluoromethyl)phenyl]-1H-pyrazolo[3,4-d]pyrimidin-6-yl}amino)cyclobutanol] | 5.62 | 0.32 L/h/kg | 76% |
| CC1(O)CCN(C2CN(c3nc(N[C@H]4C[C@H](O)C4)nc4c3cnn4-c3cccc(C(F)(F)F)c3)C2)CC1 [Example I-79, 1-(1-{6-[(trans-3-hydroxycyclobutyl)amino]-1-[3-(trifluoromethyl)phenyl]-1H-pyrazolo-[3,4-d]pyrimidin-4-yl}azetidin-3-yl)-4-methylpiperidin-4-ol] | 7.75 | 0.41 L/h/kg | 69% |
| CC(C)(O)C1CN(c2nc(N[C@H]3C[C@H](S(C)(=O)=O)C3)nc3c2cnn3-c2cccc(C(F)(F)F)c2)C1 [Example I-83, 2-[1-(6-{[trans-3-(methylsulfonyl)cyclobutyl]amino}-1-[3-(trifluoromethyl)phenyl]-1H-pyrazolo[3,4-d]pyrimidin-4-yl)azetidin-3-yl]propan-2-ol] | 5.53 | 0.23 L/h/kg | 83% |
| O[C@@H]1CN(c2nc(N[C@H]3C[C@@H](O)C3)nc3c2cnn3-c2cccc(C(F)(F)F)c2)C[C@H]1O [Example I-85, (3R,4R)-1-(6-{[(1s,3S)-3-hydroxycyclobutyl]amino}-1-[3-(trifluoromethyl)phenyl]-1H-pyrazolo[3,4-d]pyrimidin-4-yl)pyrrolidine-3,4-diol] | 2.41 | < 0.01 (stable) L/h/kg | 100 (stable) % |
| CS(=O)(=O)[C@H]1C[C@H](Nc2nc(N3C[C@@H](O)[C@H](F)C3)c3cnn(-c4cccc(C(F)(F)F)c4)c3n2)C1 [Example I-86, (3R,4R)-4-fluoro-1-(6-{[(1r,3R)-3-(methylsulfonyl)cyclobutyl]amino}-1-[3-(trifluoromethyl)phenyl]-1H-pyrazolo[3,4-d]pyrimidin-4-yl)pyrrolidin-3-ol] | 3.66 | 0.25 L/h/kg | 81% |
| O[C@@H]1CN(c2nc(N[C@H]3C[C@H](O)C3)nc3c2cnn3-c2cccc(C(F)(F)F)c2)C[C@H]1F [Example I-88, (3R,4R)-4-fluoro-1-(6-{[(1r,3R)-3-hydroxycyclobutyl]amino}-1-[3-(trifluoromethyl)-phenyl]-1H-pyrazolo[3,4-d]pyrimidin-4-yl)pyrrolidin-3-ol] | 3.94 | 0.57 L/h/kg | 57% |
| O[C@@H]1CN(c2nc(N[C@H]3C[C@@H](O)C3)nc3c2cnn3-c2cccc(C(F)(F)F)c2)C[C@H]1F [Example I-89, (3R,4R)-4-fluoro-1-(6-{[(1s,3S)-3-hydroxycyclobutyl]amino}-1-[3-(trifluoromethyl)-phenyl]-1H-pyrazolo[3,4-d]pyrimidin-4-yl)pyrrolidin-3-ol] | 4.72 | 0.37 L/h/kg | 72% |
| CC(C)(O)C1CCN(c2nc(N[C@H]3C[C@](C)(O)C3)nc3c2cnn3-c2cccc(C(F)(F)F)c2)CC1 [Example I-91, trans-3-({4-[4-(2-hydroxypropan-2-yl)piperidin-1-yl]-1-[3-(trifluoromethyl)phenyl]-1H-pyrazolo[3,4-d]pyrimidin-6-yl}amino)-1-methylcyclobutanol] | 6.53 | 0.04 L/h/kg | 97% |
| CCC1(O)CN(c2nc(N[C@H]3C[C@H](S(C)(=O)=O)C3)nc3c2cnn3-c2cccc(C(F)(F)F)c2)C1 [Example I-92, 3-ethyl-1-(6-{[trans-3-(methylsulfonyl)cyclobutyl]amino}-1-[3-(trifluoromethyl)phenyl]-1H-pyrazolo[3,4-d]pyrimidin-4-yl)azetidin-3-ol] | 5.61 | 0.36 L/h/kg | 73% |
| CS(=O)(=O)[C@H]1C[C@H](Nc2nc(N3C[C@H](O)[C@@H](F)C3)c3cnn(-c4cccc(C(F)(F)F)c4)c3n2)C1 [Example I-94, (3S,4S)-4-fluoro-1-(6-{[(1r,3S)-3-(methylsulfonyl)cyclobutyl]amino}-1-[3-(trifluoromethyl)phenyl]-1H-pyrazolo[3,4-d]pyrimidin-4-yl)pyrrolidin-3-ol] | 4.28 | 0.16 L/h/kg | 88% |
| O[C@H]1CN(c2nc(N[C@H]3C[C@@]4(CCN4)C3)nc3c2cnn3-c2cccc(C(F)(F)F)c2)C[C@@H]1F [Example I-98, (3S,4S)-1-{6-[(4S,6s)-1-azaspiro[3.3]heptan-6-ylamino]-1-[3-(trifluoromethyl)phenyl]-1H-pyrazolo[3,4-d]pyrimidin-4-yl}-4-fluoropyrrolidin-3-ol] | 9.99 | < 0.01 (stable) L/h/kg | 100 (stable) % |
| O[C@@H]1CN(c2nc(N[C@H]3C[C@H](O)C3)nc3c2cnn3-c2cccc(C(F)(F)F)c2)C[C@H]1O [Example I-101, (3R,4R)-1-(6-{[(1r,3R)-3-hydroxycyclobutyl]amino}-1-[3-(trifluoromethyl)phenyl]-1H-pyrazolo[3,4-d]pyrimidin-4-yl)pyrrolidine-3,4-diol] | 2.81 | 0.35 L/h/kg | 73% |
| CC1(N2CCOCC2)CN(c2nc(NC3CCS(=O)(=O)CC3)nc3c2cnn3-c2cccc(C(F)(F)F)c2)C1 [Example I-106, N-(1,1-dioxidotetrahydro-2H-thiopyran-4-yl)-4-[3-methyl-3-(morpholin-4-yl)azetidin-1-yl]-1-[3-(trifluoromethyl)phenyl]-1H-pyrazolo[3,4-d]pyrimidin-6-amine] | 9.09 | 0.68 L/h/kg | 48% |
| C[C@]1(O)C[C@@H](Nc2nc(N3C[C@@H](O)[C@H](O)C3)c3cnn(-c4cccc(C(F)(F)F)c4)c3n2)C1 [Example I-107] | 8.11 | 0.05 L/h/kg | 96% |
